1 compound from patent US20220409521A1, “COMPOSITION FOR COSMETICS” (FE:I BEAUTY TECH, INC., priority 2021, published 2022) can be followed below.

SMILES strings stand for the structures.

The experiment concerns Primary human dermal fibroblast (HDF) cells. Kind of experiment: Ferritin induction in HDF cells (ferritin and protein by ELISA). The experiment is classed as cell-based. Particulars: Example 1; 5 μM in culture media, 18 hours; vs cells with no treatment. The method, then:
Primary human dermal fibroblast (HDF) cells were cultured in Dulbecco's modified eagle medium (DMEM) with GlutaMAX™ and 10% Fetal Bovine Serum (FBS) and 1% Streptomycin (antibiotics). Before treatment, cells were seeded in a 12-well plate (1 ml culture media and surface area of the well is approximately 4.0 cm^2 per well) overnight. After washing twice with cold phosphate buffered saline (PBS), HDF cells were starved in 0.1% FBS for overnight. Subsequently, cells were treated with ferrous sulfate septahydrate (FeSO4·7H2O) at a final concentration of 5 μM for additional 18 hours. Cells with no treatment were used as a control. Cells were then washed with PBS and lysed. Levels of ferritin and protein were measured by using commercially available enzyme-linked immunosorbent assays (ELISA) kits and quantitated with standard curves constructed with human liver ferritin and human serum albumin as standards. The results were expressed as μg ferritin per mg protein and are show in FIG. 2.
The two iron oxides were premixed homogeneously in a 50% (v/v) of water and tertraethylene glycol and incubated at 3 mg/ml overnight at room temperature in a sodium acetate buffer (10 mM, pH 5.0), mimicking the pHs of acid rain or sweat. […] After the foregoing treatment, cells were collected and levels of ferritin and proteins in cells were measured and calculated as described in Example 1. […]
On the technique in general: An ELISA detects its analyte on a solid surface through an enzyme-linked reagent.

In the case of `O.O.O.O.O.O.O.O=S(=O)([O-])[O-].[Fe+2]` [ferrous sulfate, ferrous sulfate septahydrate (FeSO4·7H2O)], the “increase in level of ferritin compared to the control” value was 570%.
